Reference: patent US10457662B2, “Substituted amides for treating and preventing cancer” (The Regents of the University of Michigan, priority 2015, dated 2019)
Where two headings read alike, the source gives them in different places.

Tests used:
[1] = system: MiaPaCa-2 cells; experiment: Bru-seq analysis of RNA synthesis in MiaPaCa-2; assay type: cell-based; conditions: 1 μM
Experimental: In order to understand the mechanism of action for QN523 in pancreatic cancer, Bru-seq was performed to evaluate global changes in gene synthesis after QN523 treatment. […] During this time, the cells begin initiating cascade of pharmacological events unique to these compounds. However, cell death pathways will be initiated at later time points well beyond 24 hrs. Therefore, the Bru-seq experiments were performed after 24 hrs drug (1 μM) exposure. Using RPKM>0.5, gene size >300 bp as the cut off values to eliminate background noises, there were totally 8521 expressed genes in the QN523 and DMSO control samples out of around 22,000 genes in the reference genome.
Bru-seq data from QN523 treatment (1 uM, 24 h) and vehicle controls in MiaPaCa-2 was processed by filtering for genes with RPKM>0.5, gene size >300 bp. Expressed genes were then preranked according to fold change comparing to control and subjected to analysis.

[2] = system: MiaPaCa-2 cells; experiment: Ingenuity Pathway Analysis (IPA) of Bru-seq gene lists; conditions: 1 μM, 24 h
From the text: Top 20 canonical pathways regulated by QN523. Histogram represents percentage of genes regulated in the pathway; numbers on the histogram are total numbers of genes in the specific pathway. […] Orange line represents statistical significance in regulation of the indicated pathway.

[3] = system: HepG2; experiment: MTT assay, HepG2; assay type: cell-based; conditions: Homo sapiens, HCC cell line
Experimental: (§1) In order to understand its potential selectivity for different types of cancer and choose the best model for further characterization, QN523 was tested in a panel of 12 cancer cell lines with various genetic and pathological backgrounds (Table 2). […] Because of remarkable potency of QN-523 in pancreatic cancer in-depth preclinical studies in this disease model were performed.

[4] = system: MiaPaCa-2; experiment: MTT assay, MiaPaCa-2
Experimental: Cells were treated with QN523 for 1, 4, 8, 24, 48, 72 h and left in culture in fresh media. MTT assay was performed 72 h after initiation of treatment. Data points represent Mean±SD from three independent experiments.
(§2) Experiments conducted during the course of developing embodiments for the present invention involved performance of a phenotypic screen of a library of 20,000 small-molecules representing five million compounds. […] Subsequently, a lead optimization campaign was performed to synthesize a series of close analogs. Initially, the 50 analogs were tested in three pancreatic cancer cell lines using MTT assay (Table 1).
(§3) For in vitro studies, compounds were dissolved in DMSO at 10 mM as stock solutions and stored at −20° C. For in vivo studies, QN523 was dissolved in a vehicle containing 5% DMSO, 35% propylene glycol and 60% saline, and administered at 100 uL through intraperitoneal injections.

[5] = system: SNU398; experiment: MTT assay, SNU398; assay type: cell-based; conditions: Homo sapiens, SNU-398, HCC cell line
Experimental: as §1

[6] = system: WIPI1, GABARAPL1 and LC3B; experiment: Western blotting of autophagy related proteins in MiaPaCa-2; assay type: cell-based
Experimental: FIG. 12: QN523 induces protein expression of autophagy markers dose-dependently.
Significant induction of the protein was detected at concentrations as low as 0.25 μM.
In addition, primary antibodies for LC3B, survivin, cyclin D1, Stat3 and phosphorylated Stat3 (Y705) are from Cell Signaling Technology.

[7] = system: SNU475; experiment: MTT assay, SNU475; assay type: cell-based; conditions: Homo sapiens, SNU-475, HCC cell line
Experimental: as §1

[8] = system: BxPC-3; experiment: MTT assay, BxPC-3; assay type: cell-based; conditions: Homo sapiens
Experimental: as §2, §3

[9] = system: SNU387; experiment: MTT assay, SNU387; assay type: cell-based; conditions: Homo sapiens, SNU-387, HCC cell line
Experimental: as §1

[10] = system: PDAC cell lines; experiment: Colony formation assay, three pancreatic cancer cell lines; assay type: cell-based; conditions: 1 μM; all three cell lines; 24 h treatment
From the text: A) QN523 inhibits colony formation in PDAC cell lines. […] Data points represent Mean±SD from three independent experiments.
The cytotoxicity of QN523 was further evaluated in three pancreatic cancer cell lines using colony formation assay. Using numbers and sizes of colonies as the experimental readout, this long-term assay estimates both anti-proliferative and cytotoxic effect.

[11] = system: panel of 12 cancer cell lines; experiment: MTT assay, panel of 12 cancer cell lines; assay type: cell-based; conditions: range over the panel; read-out: IC50 values across all 12 cell lines
Experimental: as §1

[12] = system: Panc-1; experiment: MTT assay, Panc-1; assay type: cell-based; conditions: Homo sapiens
Experimental: as §2, §3

SMILES: O=C(Nc1cccc2cccnc12)c1cnccn1 [QN523, Pyrazine-2-carboxylic acid quinolin-8-ylamide]
- number of genes downregulated ([1]; 24 h, of 8521 expressed genes): 123 genes
- number of genes upregulated more than two fold ([1]; 24 h, of 8521 expressed genes): 275 genes
- Fold Change ATF3 ([1]; RNA synthesis, 24 h vs control): 22.1 fold
- Fold Change AURKAIP1 ([1]; RNA synthesis, 24 h vs control): −2.3 fold
- Fold Change C9orf140 ([1]; RNA synthesis, 24 h vs control): −2.5 fold
- Fold Change C17orf62 ([1]; RNA synthesis, 24 h vs control): −2.5 fold
- Fold Change C19orf60 ([1]; RNA synthesis, 24 h vs control): −2.3 fold
- Fold Change C19orf76 ([1]; RNA synthesis, 24 h vs control): −2.3 fold
- Fold Change CCDC85C ([1]; RNA synthesis, 24 h vs control): −2.4 fold
- Fold Change CCNG2 ([1]; RNA synthesis, 24 h vs control): 6.6 fold
- Fold Change CD55 ([1]; RNA synthesis, 24 h vs control): 6.3 fold
- Fold Change CXCL3 ([1]; RNA synthesis, 24 h vs control): 11.1 fold
- Fold Change DDIT3 ([1]; RNA synthesis, 24 h vs control): 10.7 fold
- Fold Change DNAJB9 ([1]; RNA synthesis, 24 h vs control): 7.8 fold
- Fold Change FAM129A ([1]; RNA synthesis, 24 h vs control): 16.0 fold
- Fold Change FASN ([1]; RNA synthesis, 24 h vs control): −2.4 fold
- Fold Change GABARAPL1 ([1]; RNA synthesis, 24 h vs control): 8.2 fold
- Fold Change HERPUD1 ([1]; RNA synthesis, 24 h vs control): 10.0 fold
- Fold Change HMOX1 ([1]; RNA synthesis, 24 h vs control): 13.6 fold
- Fold Change HPDL ([1]; RNA synthesis, 24 h vs control): −2.4 fold
- Fold Change HSPA5 ([1]; RNA synthesis, 24 h vs control): 7.9 fold
- Fold Change LOC344887 ([1]; RNA synthesis, 24 h vs control): 16.7 fold
- Fold Change MAP1LC3B ([1]; RNA synthesis, 24 h vs control): 6.9 fold
- Fold Change MXD3 ([1]; RNA synthesis, 24 h vs control): −2.3 fold
- Fold Change NAT14 ([1]; RNA synthesis, 24 h vs control): −2.4 fold
- Fold Change OSGIN1 ([1]; RNA synthesis, 24 h vs control): 8.0 fold
- Fold Change PRKCDBP ([1]; RNA synthesis, 24 h vs control): −2.3 fold
- Fold Change RANGRF ([1]; RNA synthesis, 24 h vs control): −2.3 fold
- Fold Change RNASEH2C ([1]; RNA synthesis, 24 h vs control): −2.3 fold
- Fold Change RPL23AP32 ([1]; RNA synthesis, 24 h vs control): −2.3 fold
- Fold Change SAT1 ([1]; RNA synthesis, 24 h vs control): 7.2 fold
- Fold Change SCARNA10 ([1]; RNA synthesis, 24 h vs control): −2.4 fold
- Fold Change SEMA6B ([1]; RNA synthesis, 24 h vs control): −2.4 fold
- Fold Change SLC37A4 ([1]; RNA synthesis, 24 h vs control): −2.3 fold
- Fold Change SLFN5 ([1]; RNA synthesis, 24 h vs control): 10.1 fold
- Fold Change TERC ([1]; RNA synthesis, 24 h vs control): −2.4 fold
- Fold Change THAP11 ([1]; RNA synthesis, 24 h vs control): −2.5 fold
- Fold Change TRIB3 ([1]; RNA synthesis, 24 h vs control): 14.3 fold
- Fold Change UPP1 ([1]; RNA synthesis, 24 h vs control): 18.4 fold
- Fold Change WIPI1 ([1]; RNA synthesis, 24 h vs control): 15.3 fold
- Fold Change ZDHHC12 ([1]; RNA synthesis, 24 h vs control): −2.4 fold
- genes up-regulated in unfolded protein response, ER stress pathway and circadian rhythm signaling [2]: about 25%
- IC50 [3]: 500 nM
- IC50 ([4]; Homo sapiens, MIA PaCa-2, read-out: IC50 Mia PaCa-2, MTT assay, PDAC cell line): 110 nM
- IC50 ([4]; Homo sapiens, MIA PaCa-2, read-out: IC50 Values MiaPaCa-2, MTT assay, Mean ± SD, three independent experiments): 110 ± 30 nM
- IC50 ([4]; read-out: IC50 Mia PaCa-2, MTT assay, PDAC cell line): ~100 nM
- cytotoxicity versus treatment time ([4]; treated 1, 4, 8, 24, 48, 72 h, washed, MTT at 72 h): time dependent cytotoxicity effect
- IC50 [5]: 1900 nM
- lowest concentration with significant induction of WIPI1 protein ([6]; 72 h): 0.25 µM
- autophagy-related markers WIPI1, GABARAPL1 and LC3B ([6]; 72 h treatment, western blotting): Accumulation
- IC50 [7]: 2670 nM
- IC50 ([8]; BXPC-3, read-out: IC50 BxPC-3): 3.3 µM
- IC50 ([8]; BXPC-3, read-out: IC50 Values BxPC-3): 3.3 ± 0.26 µM
- IC50 [9]: 5.73 µM
- inhibition of colony formation [10]: Complete inhibition of colony formation
- IC50 [11]: 100 to 5700 nM
- IC50 ([12]; PANC-1, read-out: IC50 Panc-1): 500 nM
- IC50 ([12]; PANC-1, read-out: IC50 Values Panc-1): 500 ± 70 nM
